Data as given in the NIST ThermoML archive (doi:10.1016/j.jct.2016.03.034).
Numbers after ± are expanded uncertainties.

Assays:
[1] = 101.33 kPa, Liquid; for viscosity: Capillary tube (Ostwald / Ubbelohde) method; for mass density: Vibrating tube method
[2] = xn = mol fraction of the nth substance listed; conditions: 100 kPa, Liquid, x1 = 1; for viscosity: Capillary tube (Ostwald / Ubbelohde) method; for mass density: Vibrating tube method

Row | SMILES | viscosity ([1]; 293.15 K) [mPa·s] | mass density ([1]; 293.15 K) [kg/m3] | viscosity ([1]; 298.15 K) [mPa·s] | mass density ([1]; 298.15 K) [kg/m3] | viscosity ([1]; 303.15 K) [mPa·s] | mass density ([1]; 303.15 K) [kg/m3] | viscosity ([1]; 308.15 K) [mPa·s] | mass density ([1]; 308.15 K) [kg/m3] | viscosity ([1]; 313.15 K) [mPa·s] | mass density ([1]; 313.15 K) [kg/m3] | viscosity ([1]; 318.15 K) [mPa·s] | mass density ([1]; 318.15 K) [kg/m3] | viscosity ([1]; 323.15 K) [mPa·s] | mass density ([1]; 323.15 K) [kg/m3] | viscosity ([2]; 293.15 K) [mPa·s] | mass density ([2]; 293.15 K) [kg/m3] | viscosity ([2]; 298.15 K) [mPa·s] | mass density ([2]; 298.15 K) [kg/m3] | viscosity ([2]; 303.15 K) [mPa·s] | mass density ([2]; 303.15 K) [kg/m3] | also measured
1 | CCCCCC[n+]1ccn(C)c1.O=S(=O)([N-]S(=O)(=O)C(F)(F)F)C(F)(F)F | 87.29 ± 3.6 | 1376.84 ± 11 | 70.52 ± 2.9 | 1371.81 ± 11 | 55.92 ± 2.3 | 1367.68 ± 11 | 47.46 ± 1.9 | 1363.11 ± 11 | 37.22 ± 1.5 | 1357.51 ± 11 | 31.35 ± 1.3 | 1352.62 ± 11 | 25.95 ± 1.1 | 1349.46 ± 11 |  |  |  |  |  |  | viscosity ([1]; 273.15 K): 279.26 ± 13 mPa·s; mass density ([1]; 273.15 K): 1395.43 ± 11 kg/m3; mass density ([1]; 278.15 K): 1390.66 ± 11 kg/m3; viscosity ([1]; 283.15 K): 148.8 ± 6.5 mPa·s; mass density ([1]; 283.15 K): 1386.02 ± 11 kg/m3; mass density ([1]; 288.15 K): 1381.44 ± 11 kg/m3
2 | CCCCCC[n+]1ccn(C)c1.O=S(=O)([N-]S(=O)(=O)C(F)(F)F)C(F)(F)F + O=C1CCCO1 |  |  |  |  |  |  |  |  |  |  |  |  |  |  | 87.29 ± 3.6 | 1376.84 ± 11 | 70.52 ± 2.9 | 1371.81 ± 11 | 55.92 ± 2.3 | 1367.68 ± 11 | viscosity ([2]; 308.15 K): 47.46 ± 1.9 mPa·s; mass density ([2]; 308.15 K): 1363.11 ± 11 kg/m3; viscosity ([2]; 313.15 K): 37.22 ± 1.5 mPa·s; mass density ([2]; 313.15 K): 1357.51 ± 11 kg/m3; viscosity ([2]; 318.15 K): 31.35 ± 1.3 mPa·s; mass density ([2]; 318.15 K): 1352.62 ± 11 kg/m3; viscosity ([2]; 323.15 K): 25.95 ± 1.1 mPa·s; mass density ([2]; 323.15 K): 1349.46 ± 11 kg/m3
3 | CCCCCCCCn1cc[n+](C)c1.O=S(=O)([N-]S(=O)(=O)C(F)(F)F)C(F)(F)F + O=C1CCCO1 |  |  |  |  |  |  |  |  |  |  |  |  |  |  | 114.86 ± 4.9 | 1324.82 ± 11 | 88.59 ± 3.7 | 1320.47 ± 11 | 69.08 ± 2.8 | 1316.05 ± 11 | viscosity ([2]; 308.15 K): 56.43 ± 2.3 mPa·s; mass density ([2]; 308.15 K): 1311.64 ± 11 kg/m3; viscosity ([2]; 313.15 K): 45.03 ± 1.8 mPa·s; mass density ([2]; 313.15 K): 1307.24 ± 10 kg/m3; viscosity ([2]; 318.15 K): 37.25 ± 1.5 mPa·s; mass density ([2]; 318.15 K): 1302.85 ± 10 kg/m3; viscosity ([2]; 323.15 K): 30.83 ± 1.2 mPa·s; mass density ([2]; 323.15 K): 1298.47 ± 10 kg/m3
4 | CCn1cc[n+](C)c1.O=S(=O)([N-]S(=O)(=O)C(F)(F)F)C(F)(F)F | 37.8 ± 1.5 | 1523.44 ± 12 | 31.79 ± 1.3 | 1518.3 ± 12 | 26.84 ± 1.1 | 1513.11 ± 12 | 22.9 ± 0.9 | 1507.9 ± 12 | 19.75 ± 0.8 | 1502.68 ± 12 | 17.05 ± 0.69 | 1497.48 ± 12 | 15.02 ± 0.61 | 1492.24 ± 12 |  |  |  |  |  |  | 
5 | CCn1cc[n+](C)c1.O=S(=O)([N-]S(=O)(=O)C(F)(F)F)C(F)(F)F + O=C1CCCO1 |  |  |  |  |  |  |  |  |  |  |  |  |  |  | 37.8 ± 1.5 | 1523.44 ± 12 | 31.79 ± 1.3 | 1518.3 ± 12 | 26.84 ± 1.1 | 1513.11 ± 12 | viscosity ([2]; 308.15 K): 22.9 ± 0.93 mPa·s; mass density ([2]; 308.15 K): 1507.9 ± 12 kg/m3; viscosity ([2]; 313.15 K): 19.75 ± 0.8 mPa·s; mass density ([2]; 313.15 K): 1502.68 ± 12 kg/m3; viscosity ([2]; 318.15 K): 17.05 ± 0.69 mPa·s; mass density ([2]; 318.15 K): 1497.48 ± 12 kg/m3; viscosity ([2]; 323.15 K): 15.02 ± 0.61 mPa·s; mass density ([2]; 323.15 K): 1492.24 ± 12 kg/m3
6 | CCCCCCCCn1cc[n+](C)c1.O=S(=O)([N-]S(=O)(=O)C(F)(F)F)C(F)(F)F | 114.86 ± 4.9 | 1324.82 ± 11 | 88.59 ± 3.7 | 1320.47 ± 11 | 69.08 ± 2.8 | 1316.05 ± 11 | 55.38 ± 2.2 | 1311.64 ± 11 | 45.03 ± 1.8 | 1307.24 ± 10 | 37.25 ± 1.5 | 1302.85 ± 10 | 30.83 ± 1.2 | 1298.47 ± 10 |  |  |  |  |  |  | mass density ([1]; 273.15 K): 1340.42 ± 11 kg/m3; viscosity ([1]; 283.15 K): 208.88 ± 9.6 mPa·s; mass density ([1]; 283.15 K): 1331.26 ± 11 kg/m3
